According to article PMC5349910, “Discovery of BPR1K871, a quinazoline based, multi-kinase inhibitor for the treatment of AML and solid tumors: Rational design, synthesis, in vitro and in vivo evaluation” (Oncotarget, 2016):
Where two headings read alike, the source gives them in different places.

How the values were obtained:
MV4-11 cells = experiment: MTS cell viability assay, MV4-11; assay type: cell-based, human; conditions: MTS, 72 h, AML-FLT3-ITD (homozygous), supplement values ± SEM, read-out: MV4-11 EC50
Description: The MTS cell viability assay was conducted as previously described. The MOLM-13 human leukemia cell line was obtained from the German Resource Centre for Biological Material (DSMZ, Braunschweig, Germany); the MV4-11 cell line was purchased from the American Type Culture Collection (ATCC, Manassas, VA, USA). […] To determine cell viability after drug treatment, assay for MOLM-13 and MV4-11 was performed by seeding 10000 cells per well in a 96-well culture plate. […] After 16 h, cells were then treated with vehicle or various concentrations of compound in medium for 72 h. Viable cells were quantified using the MTS method (Promega, Madison, WI, USA) according to the manufacturer's recommended protocol. Results were determined by measuring the absorbance at 490 nm using a plate reader (Victor2; PerkinElmer, Shelton, CT, USA).

[1] = test system: Detroit 551 (human normal skin fibroblast cells); experiment: MTS cell viability assay, Detroit-551; assay type: cell-based; conditions: 72 h
Description: The MTS cell viability assay was conducted as previously described. The MOLM-13 human leukemia cell line was obtained from the German Resource Centre for Biological Material (DSMZ, Braunschweig, Germany); the MV4-11 cell line was purchased from the American Type Culture Collection (ATCC, Manassas, VA, USA). Both the leukemia cell lines were maintained in RPMI 1640 medium supplemented with 10% fetal bovine serum (FBS), 10 UmL^-1 penicillin, and […] streptomycin at 37°C and 5% CO2. The Detroit-551, COLO205, and Mia-PaCa2 cell lines were purchased from the American Type Culture Collection (ATCC, Manassas, VA, USA) and cultured according to instructions of ATCC. To determine cell viability after drug treatment, assay for MOLM-13 and MV4-11 was performed by seeding 10000 cells per well in a 96-well culture plate. Detroit-551, COLO205, and Mia-PaCa2 were seeded at density of 2500, 4000, and 3750 cells per well, respectively. After 16 h, cells were then treated with vehicle or various concentrations of compound in medium for 72 h. Viable cells were quantified using the MTS method (Promega, Madison, WI, USA) according to the manufacturer's recommended protocol. Results were determined by measuring the absorbance at 490 nm using a plate reader (Victor2; PerkinElmer, Shelton, CT, USA).

K562 cells = experiment: Anti-proliferative activity, K562; assay type: cell-based; conditions: Homo sapiens, K562; CML-Bcr-Abl FLT3-negative; supplement values ± SEM; read-out: K562 EC50
H2228 cells = experiment: Anti-proliferative activity, H2228; assay type: cell-based; conditions: Homo sapiens, NCI-H2228; NSCLC-ALK; supplement values ± SEM; read-out: H2228 EC50
CL-97 cells = experiment: Anti-proliferative activity, CL-97; assay type: cell-based, human; conditions: CL97; Human Lung Cancer; supplement values ± SEM; read-out: CL-97 EC50
HCT-116 cells = experiment: Anti-proliferative activity, HCT-116; assay type: cell-based, human; conditions: HCT-116; Human Colon Cancer; supplement values ± SEM; read-out: HCT-116 EC50
Mia-PaCa2 cells = experiment: Anti-proliferative activity, Mia-PaCa2; assay type: cell-based, human; conditions: supplement values ± SEM
CYP 2C19 = CYP 2C19 (Homo sapiens, UniProt P33261); experiment: CYP inhibition assay, CYP 2C19; assay type: in vitro ADME
[2] = Microsomal stability assay, mouse; assay type: in vitro ADME
FLT3^ITD = experiment: KINOMEScan, FLT3 ITD; conditions: 1000 nM
KIT^A829P = KIT^A829P (Homo sapiens, UniProt P10721, A829P); experiment: KINOMEScan, KIT A829P; conditions: read-out: KIT^A829P % control
FLT3^N841I = FLT3^N841I (Homo sapiens, UniProt P36888, N841I); experiment: KINOMEScan, FLT3 N841I; conditions: read-out: FLT3^N841I % control
AURKB = AURKB (Homo sapiens, UniProt Q96GD4); experiment: AURKB inhibition assay (Kinase-Glo); assay type: biochemical; set-up: full length His-tagged Aurora-B (residues M1∼A344); His; purchased Invitrogen PV6130; conditions: mean of at least two independent experiments
Description: AURKB assay was conducted as previously described. Briefly, the recombinant full length His-tagged Aurora-B (residues M1∼A344) was purchased from Invitrogen (Catalog number: PV6130). The kinase assay was carried out in 96-well plates with the tested compound in reaction solution (50 mM Tris-HCl pH 7.4, 10 mM NaCl, 10 mM MgCl2, 0.01% BSA, 5 mM ATP, 1 mM DTT and 15 mM tetra(LRRASLG) peptide, and 40 ng recombinant Aurora-B) at 30°C for 180 min.
Following incubation, 50 μL Kinase-Glo Plus Reagent (Promega, Madison, WI, USA) was added, and the mixture was incubated at 25°C for 20 min. A 70 μL aliquot of each reaction mixture was transferred to a black microliter plate, and luminescence was measured on a Wallac Vector 1420 multilabel counter (PerkinElmer, Shelton, CT, USA).

Sequence of KIT^A829P (P10721 26-976 A829P): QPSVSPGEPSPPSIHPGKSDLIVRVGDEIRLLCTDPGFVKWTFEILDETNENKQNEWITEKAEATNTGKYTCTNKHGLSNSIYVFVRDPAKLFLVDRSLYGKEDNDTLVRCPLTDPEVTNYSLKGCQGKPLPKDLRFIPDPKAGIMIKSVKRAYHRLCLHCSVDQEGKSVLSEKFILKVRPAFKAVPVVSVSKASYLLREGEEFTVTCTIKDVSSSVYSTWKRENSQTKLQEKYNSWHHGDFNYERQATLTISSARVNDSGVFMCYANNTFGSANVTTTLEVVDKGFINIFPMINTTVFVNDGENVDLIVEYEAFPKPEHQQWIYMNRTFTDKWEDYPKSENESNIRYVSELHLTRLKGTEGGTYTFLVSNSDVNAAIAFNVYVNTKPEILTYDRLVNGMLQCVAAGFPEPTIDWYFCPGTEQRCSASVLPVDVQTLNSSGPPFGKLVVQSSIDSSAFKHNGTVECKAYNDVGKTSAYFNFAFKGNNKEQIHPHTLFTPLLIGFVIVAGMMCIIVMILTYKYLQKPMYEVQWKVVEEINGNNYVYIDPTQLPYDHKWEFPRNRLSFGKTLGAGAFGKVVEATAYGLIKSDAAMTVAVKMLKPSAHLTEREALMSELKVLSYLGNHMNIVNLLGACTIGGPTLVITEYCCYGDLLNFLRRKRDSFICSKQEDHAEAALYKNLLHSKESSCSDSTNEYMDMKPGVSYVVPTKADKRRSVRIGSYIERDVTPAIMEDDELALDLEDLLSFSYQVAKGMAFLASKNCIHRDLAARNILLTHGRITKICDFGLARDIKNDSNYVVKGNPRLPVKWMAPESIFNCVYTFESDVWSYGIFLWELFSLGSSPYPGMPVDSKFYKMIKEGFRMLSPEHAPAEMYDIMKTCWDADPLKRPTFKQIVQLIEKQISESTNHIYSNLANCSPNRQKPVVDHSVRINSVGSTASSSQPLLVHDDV
Sequence of AURKB (Q96GD4 whole entry): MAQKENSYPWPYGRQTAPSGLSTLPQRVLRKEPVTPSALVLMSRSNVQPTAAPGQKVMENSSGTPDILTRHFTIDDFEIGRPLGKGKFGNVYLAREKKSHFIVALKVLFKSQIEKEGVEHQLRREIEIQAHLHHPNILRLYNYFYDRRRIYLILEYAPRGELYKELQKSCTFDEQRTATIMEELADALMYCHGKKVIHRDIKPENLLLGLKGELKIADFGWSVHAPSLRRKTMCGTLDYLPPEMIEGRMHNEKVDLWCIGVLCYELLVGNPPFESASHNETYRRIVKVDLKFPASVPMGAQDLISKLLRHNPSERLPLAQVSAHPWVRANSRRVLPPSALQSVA
Sequence of CYP 2C19 (P33261 whole entry): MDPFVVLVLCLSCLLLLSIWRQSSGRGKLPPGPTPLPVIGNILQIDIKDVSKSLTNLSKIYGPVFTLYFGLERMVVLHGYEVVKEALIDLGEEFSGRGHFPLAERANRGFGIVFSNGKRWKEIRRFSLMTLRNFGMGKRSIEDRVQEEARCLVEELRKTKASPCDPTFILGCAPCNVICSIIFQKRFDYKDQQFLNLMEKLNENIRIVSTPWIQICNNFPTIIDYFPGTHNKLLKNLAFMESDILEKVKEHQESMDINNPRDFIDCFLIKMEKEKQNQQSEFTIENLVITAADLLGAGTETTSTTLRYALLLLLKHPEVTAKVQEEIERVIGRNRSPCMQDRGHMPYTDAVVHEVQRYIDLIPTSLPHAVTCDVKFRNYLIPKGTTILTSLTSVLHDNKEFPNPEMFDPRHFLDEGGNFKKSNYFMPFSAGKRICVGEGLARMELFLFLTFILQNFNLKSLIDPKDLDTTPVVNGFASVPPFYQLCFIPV
Description for Mia-PaCa2 tumors: For this, COLO205 and Mia-PaCa2 xenograft models were established through inoculating nude mice subcutaneously with corresponding cancer cells. When the tumor size reached approximately 200 mm^3, the hydrochloride salt of BPR1K871 dissolved in the formulation was intravenously administered to suppress the growth of the subcutaneously xenografted tumors.
Nude mice (n = 8–9 per group) were inoculated subcutaneously with Mia-PaCa2 (1 × 10^6 per flank) or COLO205 cells (1 × 10^6 per flank). When the tumor size reached ∼200 mm^3, animals were grouped and treated with BPR1K871 at 20 mg/kg dose in a 2-week treatment period as indicated. […] Tumor volumes were measured and calculated with the formula length × width^2/2 after initiation of treatments. Tumor size and animal body weight were measured twice a week after tumor cell inoculation. The significant difference between drug treatment and vehicle control were analyzed using one-way ANOVA and Student-Newman-Keuls test. The level of statistical significance was set at P<0.05.

With `CN(C)CCCOc1ccc2c(NCCc3cnc(NC(=O)Nc4cccc(Cl)c4)s3)ncnc2c1` [BPR1K871, 1-(3-Chlorophenyl)-3-(5-(2-((7-(3-(dimethylamino)propoxy)quinazolin-4-yl)amino)ethyl)thiazol-2-yl)urea] the EC50 (MV4-11 cells; Homo sapiens, MV4-11, 72 h) was ~5 nM, the EC50 (MV4-11 cells; listed as 10 (BPR1K871)) was 4 nM and the EC50 [1] was 4000 nM. For the same compound, the EC50 (K562 cells) was 2300 nM, the EC50 (H2228 cells) was 212 nM and the EC50 (CL-97 cells) was 2890 nM. For the same compound, the EC50 (HCT-116 cells) was 141 nM, the EC50 (Mia-PaCa2 cells; Homo sapiens, MIA PaCa-2, Human Pancreatic Cancer) was < 100 nM and the EC50 (Mia-PaCa2 cells; Human Pancreatic Cancer) was 94 nM. For the same compound, the IC50 (CYP 2C19) was > 4000 nM, the “microsomal stability, remaining at 30 min” value [2] was > 30% and the “TGI ± SD” value (Mia-PaCa2 tumors; Mia-PaCa2, 20 mg/kg iv once a day, days 1–5 and 8–12, day 29, n = 9) was 91 ± 10%. For the same compound, the body weight loss (Mia-PaCa2 tumors; Mia-PaCa2 model, 20 mg/kg iv) was ≤ 15%, the “mortality during the study” value (Mia-PaCa2 tumors; Mia-PaCa2 model, 20 mg/kg iv) was “no mice died” and the “FLT3^ITD % control” value (FLT3^ITD) was < 5.2 % control. For the same compound, the remaining binding at 1 µM (KIT^A829P) was < 4%, the remaining binding at 1 µM (FLT3^N841I) was < 5.2% and the IC50 (AURKB) was 13 nM.
